Reference: patent publication US20230255964A1, “EXTENDED RELEASE DOSAGE FORMS FOR TYK2 INHIBITORS” (Bristol-Myers Squibb Company, priority 2019, published 2023)

Tests used:
pH-dependent solubility = assay type: physicochemical; conditions: pHs > 4
Source text: For immediate release formulations, such pH-dependent properties may result in a reduction in bioavailability when dosed with acid reducing agents, such as, e.g., famotidine or omeprazole. […] While using the higher-energy, amorphous free base form of BMS-986165 helps address the above challenges, formulating amorphous BMS-986165 presents other challenges, including ensuring physical stability of the amorphous form during storage, and maintaining supersaturation of the compound during dissolution in the GI tract.

[1] = Chemical stability of BMS-986165:HPMCAS-H SDDs upon storage (related substances); assay type: physicochemical; conditions: API standard, no stability condition printed
Experimental: Lots of 25% w/w BMS-986165 SDD with HPMCAS-H were assessed for physical and chemical stability. […] Dissolution performance in the microcentrifuge test was unchanged.
There was no evidence of crystallization by PXRD in any SDD after storage for up to 6 months at 40° C./75%RH open (FIG. 1A and FIG. 1B). DSC data indicated slight changes similar to those observed in 25% w/w BMS-986165 SDD after exposure to 50° C./75%RH or 40° C./75%RH but there was no trend with API loading and the results were considered to reflect an “ageing” or “annealing” effect rather than crystal formation. Scanning electron microscopy (SEM) images confirmed the presence of a single phase homogenous dispersion (FIGS. 2A-C, FIGS. 3A-C, FIGS. 4A-C).

Row | solubility (pH-dependent solubility) | BMS-986165 (relative ret. time 1.00), related substances [1] | Total imporities >LOQ [1] | SMILES
1 | low solubility |  |  | [2H]C([2H])([2H])NC(=O)c1nnc(NC(=O)C2CC2)cc1Nc1cccc(-c2ncn(C)n2)c1OC [BMS-986165 crystalline free base, 6-(cyclopropaneamido)-4-((2-methoxy-3-(1-methyl-1H-1,2,4-triazol-3-yl)phenyl)amino)-N-(methyl-d3)pyridazine-3-carboxamide]
2 |  | 99.48 | 0.52% | [2H]C([2H])([2H])NC(=O)c1nnc(NC(=O)C2CC2)cc1Nc1cccc(-c2ncn(C)n2)c1OC [BMS-986165, 6-(cyclopropaneamido)-4-((2-methoxy-3-(1-methyl-1H-1,2,4-triazol-3-yl)phenyl)amino)-N-(methyl-d3)pyridazine-3-carboxamide]
